The results in this text go back to patent US11603395B2, “Antitumor peptide and use thereof” (TOAGOSEI CO., LTD, priority 2019, dated 2023).

Like-named read-outs stand apart in the source and are kept apart here. Where no end group is shown, it is not given here.

Data set [1] has as its system human melanoma (A2058) cell lines. Kind of data set: Antitumor index from viability of A2058 cells vs MCF-12F normal cells (Cell Counting Kit-8, WST-8). Type of data set: cell-based. Conditions: 48 hours; for Antitumor activity / proliferation of A2058 cells (in words): 6.25-25 μM; for Antitumor index: A2058 viability A / MCF-12F viability B, n=6 wells. Here is the method: Specifically, for example, a test using a conventionally known cell proliferation measurement reagent using a tetrazolium salt is performed so that the antitumor index can be calculated. In a preferable aspect, first, the antitumor composition disclosed here is added to a culture solution containing tumor cells, culture is performed for a predetermined time (for example, 24 hours or longer and 72 hours or shorter), and the viability A (%) of tumor cells is calculated. In addition, the viability B (%) of normal cells cultured under the same conditions is calculated. Then, the antitumor index based on the viabilities of tumor cells and normal cells calculated in this manner can be evaluated according to, for example, the following Formula (1):
Antitumor index based on viabilities of tumor cells and normal cells=A/B (1).
The antitumor activity of the peptides of Samples 1 to 4 synthesized in the above Test Example 1 was evaluated using human-derived cultured tumor cells as targets.
Specifically, currently commercially available human melanoma (A2058) cell lines were used as test tumor cells. In addition, a normal human mammary epithelial cell culture line (MCF-12F) was used for comparison. Here, culture solutions of respective cells are as follows.
A2058 cells and MCF-12F cells were cultured and prepared so that the number of cells per well in a 96-hole (well) plate was about 5×10^3. An amount of the culture medium in this case was 100 μL per well.
Next, the 96-hole (well) plate was placed in a CO2 incubator and pre-incubated under conditions of 37° C. and 5% CO2 for about 1 day (21 hours to 24 hours).
(§1) Then, peptide-containing test culture mediums for each concentration were prepared so that the concentrations of the sample peptides to be evaluated were 6.25 μM, 12.5 μM, and 25 μM and supplied to wells (that is, wells after the pre-incubation) in which 90 μL of cells to be evaluated were cultured in each well. Then, the 96-hole (well) plate was returned to the CO2 incubator and incubated under conditions of 37° C. and 5% CO2 for 48 hours.
Here, the number of test wells (n) at peptide concentrations in peptide addition test groups was set to 6. Therefore, the value of the result shown in the following table is an average value of the results obtained in 6 test wells.
(§2) After the incubation for 48 hours was completed, the culture medium in each well was substituted with 100 μL of a fresh culture medium containing no peptide, and additionally, 10 μL of a cell proliferation measurement reagent “Cell Counting Kit-8” (product, commercially available from Dojindo Laboratories) containing a “water-soluble tetrazolium salt (WST-8)” as a coloring reagent was added to each well. Then, the 96-well plate was returned to the CO2 incubator and incubated under conditions of 37° C., and 5% CO2 for 1.5 hours to 2 hours.
(§3) After the incubation was completed, the cell culture solution to which the reagent was added was collected and the cell viability (%) was calculated according to a colorimetric method in which an absorbance at a wavelength of 450 nm (value corrected by the absorbance at a wavelength of 620 nm: A450-A620) was measured based on the reduction of the tetrazolium salt. Specifically, a measured value (measurement absorbance) of a comparative test group in which the above incubation was performed for 48 hours in a culture medium containing no sample peptide was set as a cell viability of 100%. Then, the viability A (%) of A2058 cells and the viability B (%) of MCF-12F cells were calculated. In addition, an antitumor index was calculated based on the viability of A2058 cells and MCF-12F cells using the above Formula (1), and thus the antitumor activity of the sample peptide with respect to A2058 cells was evaluated.
A general note: Tetrazolium assays rely on reduction of a dye to a coloured formazan, in cell work by metabolically active cells.

The test system of data set [2] is human kidney cancer cell lines (CAKI2). Kind of data set: Antitumor index from viability of CAKI2 cells vs MCF-12F normal cells (Cell Counting Kit-8, WST-8). Type of data set: cell-based. Conditions: 48 hours; for Proliferation of CAKI2 cells (in words): 6.25-25 μM; for Antitumor index: CAKI2 viability A / MCF-12F viability B. Here is the method:
as §1, §2, §3
The antitumor activity of Sample 3 and Sample 4 in the above Test Example 1 was evaluated using different tumor cells as targets.
Specifically, currently commercially available human kidney cancer cell lines (CAKI2) were used as test tumor cells. In addition, the above MCF-12F cells were used for comparison.
a McCoy's 5A culture medium (product, commercially available from Gibco) containing 2 mM of L-glutamine, 3,000 mg/L of glucose, 100 unit/mL of penicillin, 100 μg/mL of streptomycin, and 10% fetal bovine serum (FBS).
Details of the test were as those described in Test Example 2. The antitumor index based on the viabilities of CAKI2 cells and MCF-12F cells calculated using the above Formula (1) is shown in Table 3.

For data set [3], the system named is human melanoma cell line (SK-MEL5). Kind of data set: Antitumor index from viability of SK-MEL5 cells vs MCF-12F normal cells (Cell Counting Kit-8, WST-8). Type of data set: cell-based. Conditions: 6.25 μM, 48 hours.
In data set [4] the test system is A2058 cells (tumor cells). Type of data set: cell-based, human. Conditions: 48 hours; for Cell viability (%): human. Here is the method:
Then, peptide-containing test culture mediums for each concentration were prepared so that the concentrations of the sample peptides to be evaluated were 6.25 μM, 12.5 μM, and 25 μM and supplied to wells (that is, wells after the pre-incubation) in which 90 μL of cells to be evaluated were cultured in each well. Then, the 96-hole (well) plate was returned to the CO2 incubator and incubated under conditions of 37° C. and 5% CO2 for 48 hours. After the incubation for 48 hours was completed, the culture medium in each well was substituted with 100 μL of a fresh culture medium containing no peptide, and additionally, 10 μL of a cell proliferation measurement reagent “Cell Counting Kit-8” (product, commercially available from Dojindo Laboratories) containing a “water-soluble tetrazolium salt (WST-8)” as a coloring reagent was added to each well. Then, the 96-well plate was returned to the CO2 incubator and incubated under conditions of 37° C., and 5% CO2 for 1.5 hours to 2 hours. After the incubation was completed, the cell culture solution to which the reagent was added was collected and the cell viability (%) was calculated according to a colorimetric method in which an absorbance at a wavelength of 450 nm (value corrected by the absorbance at a wavelength of 620 nm: A450-A620) was measured based on the reduction of the tetrazolium salt. Specifically, a measured value (measurement absorbance) of a comparative test group in which the above incubation was performed for 48 hours in a culture medium containing no sample peptide was set as a cell viability of 100%. Then, the viability A (%) of A2058 cells and the viability B (%) of MCF-12F cells were calculated. In addition, an antitumor index was calculated based on the viability of A2058 cells and MCF-12F cells using the above Formula (1), and thus the antitumor activity of the sample peptide with respect to A2058 cells was evaluated. Using tumor cells as targets, the antitumor activity was evaluated using a synthetic peptide having a sequence completely different from those of Samples 1 to 4. Specifically, the viability (%) of A2058 cells (tumor cells) when Sample 5 was treated was evaluated. Details of the test were as those described in Test Example 2. Here, the viability of A2058 cells cultured in a culture medium containing no Sample 5 for the same time was set as 100%, and the viability (%) of A2058 cells cultured under the treatment of Sample 5 was calculated.

On to “IAAVIFGFLATAAYAVNTFLAKKRTLRKNDRKKR (IAAVIFGFLATAAYAVNTFLAKKRTLRKNDRKKR-NH2) [Sample 4]”, for which, in data set [1], the “Antitumor activity / proliferation of A2058 cells (in words)” value is on record as “stronger antitumor activity”. Also, the Antitumor index in data set [1] (peptide 6.25 μM) is 0.84; in data set [1] (peptide 12.5 μM) it was 0.65; in data set [1] (peptide 25 μM), 0.12; in data set [2] (peptide 6.25 μM), 1.41; in data set [2] (peptide 12.5 μM) it was 0.83; in data set [2] (peptide 25 μM), 0.22. In data set [2], the “Proliferation of CAKI2 cells (in words)” value is recorded as “significantly reduced proliferation”.

With “LVNTGLSAFLFFIASIVLAALKKRTLRKNDRKKR (LVNTGLSAFLFFIASIVLAALKKRTLRKNDRKKR-NH2) [Sample 3]”, in data set [1], the “Antitumor activity / proliferation of A2058 cells (in words)” value was “stronger antitumor activity”. The “Proliferation of SK-MEL5 cells (in words)” value in data set [3] was “significantly reduced proliferation”. In data set [2], the “Proliferation of CAKI2 cells (in words)” value is recorded as “significantly reduced proliferation”. Besides, the Antitumor index in data set [2] (peptide 6.25 μM) turned out to be 0.77; in data set [2] (peptide 12.5 μM) it was 0.1.

For “MGSNLSPQLCLMPFILGLLSGGVTTKKRTLRKNDRKKR-NH2 [Sample 5]”, in data set [4] (A2058 cells, 6.25-25 μM), the “Antitumor activity (in words)” value is given as “no antitumor activity”. In addition, the “Cell viability (%)” value is 110.7% in data set [4] (6.25 μM), 109.9% in data set [4] (12.5 μM) and 113.6% in data set [4] (25 μM).

As for “VAQVILALIAFICIETIMACSKKRTLRKNDRKKR (VAQVILALIAFICIETIMACSKKRTLRKNDRKKR-NH2; cysteine pairing not given here) [Sample 1]”, the Antitumor index was determined as 1.17 in data set [1] (peptide 6.25 μM), 0.71 in data set [1] (peptide 12.5 μM) and 0.74 in data set [1] (peptide 25 μM).

Regarding “YFFEFVSCSAFVVTGVLLIMFKKRTLRKNDRKKR [Sample 2]”, the values for the Antitumor index in data set [1] (peptide 6.25 μM), in data set [1] (peptide 12.5 μM) and in data set [1] (peptide 25 μM) were 0.79, 0.61 and 0.52, respectively.
